We go through 9 molecules from paper PMC12957839, “Antiviral activity and mechanism of purine morpholine nucleoside analogues incorporating a sulfonamide fragment” (Journal of Advanced Research, 2025).

Structures are written as SMILES. In brackets after ≈: the same amount, converted by molar mass.

For test [1], the system named is PMMoV. Put plainly: Antiviral activity assay against PMMoV, inactivating activity. Format: in vivo, Pepper mild mottle virus (PMMoV). Conditions: Pepper mild mottle virus, against PMMoV, average of three replicates, ± standard deviation; for pest or weed control at 500 µg/mL: read-out: Inactivating activity; for EC50: read-out: EC50 of inactivating activity. As to the method:
(§1) Virions were isolated and extracted from leaves of N. benthamiana infected with PMMoV referring to the method recorded in the literature. And the inhibiting activities of C1–C38 against PMMoV were assessed with reference to the literature as well [26, 34].

Test [2] has as its system PMMoV. In words: Antiviral activity assay against PMMoV, protective activity. The arrangement: Protective activity: concentration or dose not given beside the values. Format: in vivo, Pepper mild mottle virus (PMMoV). Conditions: against PMMoV, average of three replicates, ± standard deviation; for EC50: Pepper mild mottle virus, read-out: EC50 of protective activity. As to the method: as §1

Test [3] has as its system PMMoV. Put plainly: Antiviral activity assay against PMMoV, curative activity. The class given is in vivo, Pepper mild mottle virus (PMMoV). Set-up: Curative activity: concentration or dose not given beside the values. Conditions: against PMMoV, average of three replicates, ± standard deviation; for EC50: Pepper mild mottle virus, read-out: EC50 of curative activity. The protocol:
as §1

The target in test [4] is PMMoV CP (Pepper mild mottle virus, UniProt P69509). Put plainly: Microscale thermophoresis (MST) binding affinity with PMMoV CP. The protocol: The binding affinities of compounds with PMMoV CP were analyzed by MST based on the procedures delineated in the literature.
PMMoV CP, sequence (P69509 2-157): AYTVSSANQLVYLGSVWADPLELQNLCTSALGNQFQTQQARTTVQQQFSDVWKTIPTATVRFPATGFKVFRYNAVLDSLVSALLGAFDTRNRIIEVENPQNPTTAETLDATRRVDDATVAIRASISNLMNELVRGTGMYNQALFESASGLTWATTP
On the technique in general: MST reads how a fluorescent partner responds to local heating, with and without ligand.

The EC50 is the midpoint of the concentration-response curve. Turning to `CC(=O)OCC1OC(n2cnc3c(N4CCOCC4)ncnc32)C(NS(=O)(=O)c2ccc(C#N)cc2)C(OC(C)=O)C1OC(C)=O` (stereo not shown) [C7], in test [1], the pest or weed control at 500 µg/mL was found to be 36.6 ± 3.2% and the EC50 is 2415 ± 17.2 µg/mL (≈ 3670 µM). Besides, in test [2], the EC50 was 793 ± 17.1 µg/mL (≈ 1210 µM) and the Protective activity came out at 44.7 ± 1.4%. In test [3], the EC50 amounted to 281 ± 10.3 µg/mL (≈ 427 µM) and the Curative activity is 55.8 ± 1.3%.

By Kd is commonly meant the equilibrium constant for the complex coming apart. In the case of `CC(=O)OCC1OC(n2cnc3c(N4CCOCC4)ncnc32)C(NS(=O)(=O)c2ccc(C)cc2)C(OC(C)=O)C1OC(C)=O` (stereo not shown) [C24], in test [1], the pest or weed control at 500 µg/mL amounted to 65.1 ± 4.2% and the 50% effective concentration (EC50) is 145 ± 4.7 µg/mL (≈ 224 µM). Also, in test [2], the concentration for a half-maximal effect (EC50) is 919 ± 10.2 µg/mL (≈ 1420 µM) and the Protective activity is reported as 40.8 ± 3.5%. Further, in test [3], the EC50 was found to be 30.7 ± 1.2 µg/mL (≈ 47.5 µM) and the Curative activity was 72.5 ± 2.2%. This molecule also yielded an equilibrium dissociation constant (Kd) in test [4] of 109 µM.

Turning to `COc1ccc(S(=O)(=O)NC2C(OC(C)=O)C(OC(C)=O)C(COC(C)=O)OC2n2cnc3c(N4CCOCC4)nc(N)nc32)cc1` (stereo not shown) [C14], in test [1], the pest or weed control at 500 µg/mL was 38.5 ± 2% and the concentration for a half-maximal effect (EC50) turned out to be 4507 ± 24.2 µg/mL (≈ 6650 µM). Also, in test [2], the EC50 is 926 ± 11.4 µg/mL (≈ 1370 µM) and the Protective activity is on record as 38.3 ± 4.4%. For the same molecule, in test [3], the EC50 amounted to 100 ± 8.9 µg/mL (≈ 148 µM) and the Curative activity worked out at 53.6 ± 2.4%.

In the case of `CC(=O)OCC1OC(n2cnc3c(N4CCOCC4)ncnc32)C(NS(=O)(=O)c2ccc(Cl)cc2)C(OC(C)=O)C1OC(C)=O` (stereo not shown) [C9], in test [1], the pest or weed control at 500 µg/mL was determined as 65.8 ± 3.9% and the concentration giving a half-maximal response (EC50) amounted to 103 ± 9.1 µg/mL (≈ 155 µM). For the same molecule, in test [2], the concentration for a half-maximal effect (EC50) amounted to 267 ± 8.6 µg/mL (≈ 401 µM) and the Protective activity is reported as 58.9 ± 4.0%. In test [3], the 50% effective concentration (EC50) is 33.3 ± 1.2 µg/mL (≈ 49.9 µM) and the Curative activity is 70.9 ± 4.9%.

With `CC(=O)OCC1OC(n2cnc3c(N4CCOCC4)nc(F)nc32)C(NS(=O)(=O)c2ccc(F)cc2)C(OC(C)=O)C1OC(C)=O` (stereo not shown) [C31], in test [1], the pest or weed control at 500 µg/mL is 68.5 ± 1.7% and the EC50 is 50 ± 2 µg/mL (≈ 74.8 µM). Besides, in test [2], the concentration giving a half-maximal response (EC50) was 99.6 ± 3.8 µg/mL (≈ 149 µM) and the Protective activity was 56.0 ± 1.9%. Also, in test [3], the EC50 is 29.6 ± 1.1 µg/mL (≈ 44.3 µM) and the Curative activity is 61.9 ± 3.3%.

Regarding `CC(=O)OCC1OC(n2cnc3c(N4CCOCC4)ncnc32)C(NS(=O)(=O)c2ccccc2[N+](=O)[O-])C(OC(C)=O)C1OC(C)=O` (stereo not shown) [C6], in test [1], the pest or weed control at 500 µg/mL stood at 60.8 ± 1.9% and the half-maximal effective concentration (EC50) is 182 ± 7.8 µg/mL (≈ 268 µM). In test [2], the concentration for a half-maximal effect (EC50) was determined as 358 ± 12.3 µg/mL (≈ 528 µM) and the Protective activity is 52.0 ± 2.3%. For the same molecule, in test [3], the EC50 came out at 132 ± 9.4 µg/mL (≈ 194 µM) and the Curative activity came out at 67.0 ± 4.9%.

Regarding `CC(=O)OCC1OC(n2cnc3c(N4CCOCC4)ncnc32)C(NS(=O)(=O)c2ccc(F)cc2)C(OC(C)=O)C1OC(C)=O` (stereo not shown) [C30], in test [1], the pest or weed control at 500 µg/mL was found to be 61.7 ± 4.6% and the concentration for a half-maximal effect (EC50) was 20.4 ± 4.9 µg/mL (≈ 31.4 µM). In test [2], the EC50 amounted to 262 ± 10.3 µg/mL (≈ 402 µM) and the Protective activity stood at 58.9 ± 3.8%. Also, in test [3], the EC50 was found to be 60.2 ± 3.1 µg/mL (≈ 92.5 µM) and the Curative activity was determined as 67.9 ± 3.3%.

Consider `CC(=O)OCC1OC(n2cnc3c(N4CCOCC4)ncnc32)C(NS(=O)(=O)c2cccc(OC(F)(F)F)c2)C(OC(C)=O)C1OC(C)=O` (stereo not shown) [C35], for which, in test [1], the pest or weed control at 500 µg/mL amounted to 49.1 ± 1.6% and the EC50 amounted to 457 ± 10.2 µg/mL (≈ 638 µM). Moreover, in test [2], the 50% effective concentration (EC50) is 33.9 ± 0.5 µg/mL (≈ 47.3 µM) and the Protective activity worked out at 68.9 ± 2.0%. Moreover, in test [3], the 50% effective concentration (EC50) stood at 17 ± 1.4 µg/mL (≈ 23.7 µM) and the Curative activity was 67.9 ± 3.3%.

As for `CC(=O)OCC1OC(n2cnc3c(N4CCOCC4)ncnc32)C(NS(=O)(=O)c2cccc(Br)c2)C(OC(C)=O)C1OC(C)=O` (stereo not shown) [C16], in test [1], the pest or weed control at 500 µg/mL is 55.9 ± 1.5% and the concentration giving a half-maximal response (EC50) is 171 ± 9.6 µg/mL (≈ 241 µM). Further, in test [2], the EC50 was found to be 664 ± 12.4 µg/mL (≈ 933 µM) and the Protective activity is 45.3 ± 2.5%. For the same molecule, in test [3], the EC50 came to 48.5 ± 3.1 µg/mL (≈ 68.2 µM) and the Curative activity amounted to 58.9 ± 4.2%.
